Test results published in US20250059205A1, “Heterocyclic Compounds and Methods of Use” (AMGEN INC., priority 2021, published 2025).

Experiments:
[1] = target: His-tagged KRAS G12D protein (Homo sapiens, UniProt P01116, G12D); assay: KRAS G12D TR-FRET Assay; assay type: binding
Method: Compounds of interest were prepared in a dose-response titration in DMSO, and 80 nL were added via Labcyte Echo to each well of a 384-well plate (Perkin Elmer 6008280). […] The plate was incubated for 30 minutes at room temperature. Biotinylated KRPep-2d substrate (Amgen) was diluted to 20 nM in Assay Buffer and 2 μL was added to all wells and incubated for 1 h at room temperature. Detection Reagent (0.4 nM LANCE Eu-W1024 Anti-6xHis (Perkin Elmer AD0401), 5 nM streptavidin-d2 (Cisbio 610SADLA)) was prepared in Assay Buffer, then 4 μL was added to the plate and incubated for 1 h at room temperature. Plates were read using PerkinElmer EnVision (ex: 320 nm, em1: 665 nm, em2: 615 nm) and em1/em2 data was used to generate curve fits using a 4-parameter logistic model to calculate IC50 values.

[2] = target: GDP-bound KRAS protein (aa 1-169), containing both G12D and C118A amino acid substitutions (Homo sapiens, UniProt P01116, C118A/G12D); assay: KRAS G12D Coupled Nucleotide Exchange Assay; assay type: biochemical; conditions: 2 h compound pre-incubation
Chain of GDP-bound KRAS protein (aa 1-169), containing both G12D and C118A amino acid substitutions (P01116 1-169 isoform P01116-2 G12D/C118A): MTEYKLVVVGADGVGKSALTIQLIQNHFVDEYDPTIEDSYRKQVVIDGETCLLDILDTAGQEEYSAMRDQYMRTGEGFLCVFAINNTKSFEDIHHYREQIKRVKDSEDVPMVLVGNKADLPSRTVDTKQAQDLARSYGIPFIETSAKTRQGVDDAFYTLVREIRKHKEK
Method: Following compound pre-incubation, purified SOS protein (aa 564-1049) and GTP (Roche 10106399001) were added to the assay wells and incubated for an additional 30 min. […] The assay plates were then read on a PerkinElmer EnVision Multilabel Reader, using AlphaScreen® technology, and data were analyzed using a 4-parameter logistic model to calculate IC50 values.

[3] = tested on: Phosphorylation of ERK1/2 in A-427 cells; assay: Phospho-ERK1/2 MSD Assay (A-427 cells); assay type: cell-based; conditions: Homo sapiens, A-427, 2 h, 2 h treatment, read-out: p-ERK (A427 cells) IC50
Method: (§1) A-427 (ATCC® HTB-53™) cells were cultured in RPMI 1640 Medium (ThermoFisher Scientific 11875093) containing 10% fetal bovine serum (ThermoFisher Scientific 16000044) and 1× penicillin-streptomycin-glutamine (ThermoFisher Scientific 10378016). Sixteen hours prior to compound treatment, A-427 cells were seeded in 96-well cell culture plates at a density of 25,000 cells/well and incubated at 37° C., 5% CO2. A compound dose-response titration was diluted in growth media, added to appropriate wells of a cell culture plate, and then incubated at 37° C., 5% CO2 for 2 h. Following compound treatment, cells were washed with ice-cold Dulbecco's phosphate-buffered saline, no Ca^2+ or Mg^2+ (ThermoFisher Scientific 14190144), and then lysed in RIPA buffer (50 mM Tris-HCl pH 7.5, 1% Igepal, 0.5% sodium deoxycholate, 150 mM NaCl, and 0.5% sodium dodecyl sulfate) containing protease inhibitors (Roche 4693132001) and phosphatase inhibitors (Roche 4906837001). Phosphorylation of ERK1/2 in compound-treated lysates was assayed using Phospho-ERK1/2 Whole Cell Lysate kits (Meso Scale Discovery K151DWD) according to the manufacturer's protocol. Assay plates were read on a Meso Scale Discovery Sector Imager 6000, and data were analyzed using a 4-parameter logistic model to calculate IC50 values.

[4] = tested on: Phosphorylation of ERK1/2 in AsPC-1 cells; assay: Phospho-ERK1/2 MSD Assay (AsPC-1 cells); assay type: cell-based; conditions: Homo sapiens, ASPC1, 2 h, 2 hours treatment, read-out: p-ERK (AsPC-1 cells) IC50
Method: as §1, with “AsPC-1” for “A-427”, “CRL-1682™)” for “HTB-53™)”, “hours.” for “h.”

Chain of His-tagged KRAS G12D protein (P01116 1-188 isoform P01116-2 G12D): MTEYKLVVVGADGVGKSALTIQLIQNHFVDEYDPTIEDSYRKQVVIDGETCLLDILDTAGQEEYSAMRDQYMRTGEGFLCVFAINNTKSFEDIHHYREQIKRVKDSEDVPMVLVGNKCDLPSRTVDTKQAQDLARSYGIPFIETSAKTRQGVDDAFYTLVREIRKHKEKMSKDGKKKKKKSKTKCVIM

SMILES | IC50 [1] [nM] | Avg 2 h Coupled Exchange IC50 [2] [nM] | IC50 [3] [nM] | IC50 [4] [nM]
Oc1ccc(-c2c(Cl)cc3c(N4C[C@H]5CC[C@@H](C4)N5)nc(OC[C@@]45CCCN4C[C@H](F)C5)nc3c2F)c2ccccc12 [Example 80, 4-(4-((1R,5S)-3,8-diazabicyclo[3.2. 1]octan-3-yl)-6-chloro-8-fluoro-2-(((2R,7aS)-2-fluorotetrahydro-1H-pyrrolizin-7a(5H)-yl)methoxy)quinazolin-7-yl)naphthalen-1-ol] | 10 | 4 | 649 | 607
CN1C[C@H](F)C[C@H]1COc1nc(N2[C@@H]3CC[C@H]2CNC3)c2cc(F)c(-c3cc(O)cc4ccccc34)c(F)c2n1 [Example 17, 4-(4-((1R,5S)-3,8-diazabicyclo[3.2. 1]octan-8-yl)-6,8-difluoro-2-(((2S,4R)-4-fluoro-1-methylpyrrolidin-2-yl)methoxy)quinazolin-7-yl)naphthalen-2-ol] | 26 | 17 | 1290 | 949
Oc1cc(-c2c(Cl)cc3c(N4C[C@H]5CC[C@@H](C4)N5)nc(OC[C@@]45CCCN4C[C@H](F)C5)nc3c2F)c2c(Cl)cccc2c1 [Example 86, 4-(4-((1R,5S)-3,8-diazabicyclo[3.2. 1]octan-3-yl)-6-chloro-8-fluoro-2-(((2R,7aS)-2-fluorotetrahydro-1H-pyrrolizin-7a(5H)-yl)methoxy)quinazolin-7-yl)-5-chloronaphthalen-2-ol] | 4 | 2 | 54 | 149
CCc1c(F)ccc2cc(O)cc(-c3c(F)cc4c(N5C[C@H]6C[C@@H](C5)N6)nc(OC[C@@]56CCCN5C[C@H](F)C6)nc4c3F)c12 [Example 121, 4-(4-((1R,5S)-3,6-diazabicyclo[3.1.1]heptan-3-yl)-6,8-difluoro-2-(((2R,7aS)-2-fluorotetrahydro-1H-pyrrolizin-7a(5H)-yl)methoxy)quinazolin-7-yl)-5-ethyl-6-fluoronaphthalen-2-ol] | 26 | 8 | 5530 | 2850
CCc1c(F)ccc2cc(O)cc(-c3c(F)cc4c(N5[C@@H]6CC[C@H]5CNC6)nc(OC[C@@H]5C[C@@H](F)CN5C)nc4c3F)c12 [Example 158, 4-(4-((1R,5S)-3,8-diazabicyclo[3.2.1]octan-8-yl)-6,8-difluoro-2-(((2S,4R)-4-fluoro-1-methylpyrrolidin-2-yl)methoxy)quinazolin-7-yl)-5-ethyl-6-fluoronaphthalen-2-ol] | 7 | 4 | 228 | 511
C#Cc1cccc2cc(O)cc(-c3ccc4c(N5[C@@H]6CC[C@H]5CNC6)nc(OC[C@@]56CCCN5C[C@H](F)C6)nc4c3F)c12 [Example 99, 4-(4-((1R,5S)-3,8-Diazabicyclo[3.2.1]octan-8-yl)-8-fluoro-2-(((2R,7aS)-2-fluorotetrahydro-1H-pyrrolizin-7a(5H)-yl)methoxy)quinazolin-7-yl)-5-ethynylnaphthalen-2-ol] | 3 | 3 | 5 | 19
CCc1c(F)ccc2cc(O)cc(-c3ccc4c(N5[C@@H]6CNC[C@H]5COC6)nc(OC[C@@]56CCCN5C[C@H](F)C6)nc4c3F)c12 [Example 152, 4-(4-((1R,5S)-3-oxa-7,9-diazabicyclo[3.3.1]nonan-9-yl)-8-fluoro-2-(((2R,7aS)-2-fluorotetrahydro-1H-pyrrolizin-7a(5H)-yl)methoxy)quinazolin-7-yl)-5-ethyl-6-fluoronaphthalen-2-ol] | 5 | 4 | 73 | 76
Cc1c(-c2cc(O)cc3ccccc23)ccc2c(N3C[C@H]4C[C@@H](C3)N4)nc(OC[C@@]34CCCN3C[C@H](F)C4)nc12 [Example 5, 4-(4-((1R,5S)-3,6-diazabicyclo[3.1. 1]heptan-3-yl)-2-(((2R,7aS)-2-fluorotetrahydro-1H-pyrrolizin-7a(5H)-yl)methoxy)-8-methylquinazolin-7-yl)naphthalen-2-ol] | 43 | 19 | 2150 | 2970
Oc1cc(-c2ccc3c(N4[C@@H]5CC[C@H]4CNC5)nc(OC[C@@]45CCCN4C[C@H](F)C5)nc3c2F)c2ccccc2c1 [Example 1, 4-(4-((1R,5S)-3,8-Diazabicyclo[3.2.1]octan-8-yl)-8-fluoro-2-(((2R,7aS)-2-fluorotetrahydro-1H-pyrrolizin-7a(5H)-yl)methoxy)quinazolin-7-yl)naphthalen-2-ol] | 4 | 3 | 171 | 420
N#Cc1cccc2cc(O)cc(-c3ccc4c(N5C[C@H]6CC[C@@H](C5)N6)nc(OC[C@@]56CCCN5C[C@H](F)C6)nc4c3F)c12 [Example 205, 8-(4-((1R,5S)-3,8-Diazabicyclo[3.2.1]octan-3-yl)-8-fluoro-2-(((2R,7aS)-2-fluorotetrahydro-1H-pyrrolizin-7a(5H)-yl)methoxy)quinazolin-7-yl)-6-hydroxy-1-naphthonitrile] | 6 | 7 | 71 | 293
Cc1ccc2[nH]nc(C)c2c1-c1c(F)cc2c(N3C[C@H]4CC[C@@H](C3)N4)nc(OC[C@@]34CCCN3C[C@H](F)C4)nc2c1F [Example 208, 4-((1R,5S)-3,8-diazabicyclo[3.2.1]octan-3-yl)-7-(3,5-dimethyl-1H-indazol-4-yl)-6,8-difluoro-2-(((2R,7aS)-2-fluorotetrahydro-1H-pyrrolizin-7a(5H)-yl)methoxy) quinazoline] | 18 | 8 | 484 | 843
Oc1cc(-c2c(F)cc3c(N4[C@@H]5CC[C@H]4CNC5)nc(OC[C@@]45CCCN4C[C@H](F)C5)nc3c2F)c2ccccc2c1 [Example 12, 4-(4-((1R,5S)-3,8-diazabicyclo[3.2. 1]octan-8-yl)-6,8-difluoro-2-(((2R,7aS)-2-fluorotetrahydro-1H-pyrrolizin-7a(5H)-yl)methoxy)quinazolin-7-yl)naphthalen-2-ol] |  |  | 90 | 293
Oc1cc(-c2c(F)cc3c(N4C[C@H]5CC[C@@H](C4)N5)nc(OC[C@@]45CCCN4C[C@H](F)C5)nc3c2F)c2ccccc2c1 [Example 47, 4-(4-((1R,5S)-3,8-diazabicyclo[3.2. 1]octan-3-yl)-6,8-difluoro-2-(((2R,7aS)-2-fluorotetrahydro-1H-pyrrolizin-7a(5H)-yl)methoxy)quinazolin-7-yl)naphthalen-2-ol] |  |  | 11 | 
Oc1cc(-c2c(F)cc3c(N4C[C@H]5CC[C@@H](C4)N5)nc(OC[C@]45CCCN4C[C@H](F)C5)nc3c2F)c2ccccc2c1 [Example 43, 4-(4-((1R,5S)-3,8-diazabicyclo[3.2. 1]octan-3-yl)-6,8-difluoro-2-(((2R,7aR)-2-fluorotetrahydro-1H-pyrrolizin-7a(5H)-yl)methoxy)quinazolin-7-yl)naphthalen-2-ol] |  |  | 16 | 90
